Data as given in patent US7238679B2, “Heterocycles and uses thereof” (Ariad Pharmaceuticals, Inc., priority 2002, dated 2007).

What was measured:
MDA-468 tumor cell line = assay: Conventional cell-based assay against the MDA-468 tumor cell line
Text: Cell-based methods for measuring antiproliferative activity are well known and can be used for comparative characterization of compounds of this invention. In general, cell proliferation and cell viability assays are designed to provide a detectable signal when cells are metabolically active. Compounds may be tested for antiproliferative activity by measuring any observed decrease in metabolic activity of the cells after exposure of the cells to compound. Commonly used methods include, for example, measurement of membrane integrity (as a measure of cell viability)(e.g. using trypan blue exclusion) or measurement of DNA synthesis (e.g. by measuring incorporation of BrdU or 3H-thymidine).
Some methods for assaying cell proliferation use a reagent that is converted into a detectable compound during cell proliferation. Particularly preferred compounds are tetrazolium salts and include without limitation MTT (3-(4, 5-dimethylthiazol-2-yl)-2,5-diphenyltetrazolium bromide; Sigma-Aldrich, St. Louis, Mo.), MTS (3-(4,5-dimethylthiazol-2-yl)-5-(3-carboxymethoxyphenyl)-2-(4-sulfophenyl)-2H-tetrazolium), XTT (2,3-bis(2-Methoxy4-nitro-5-sulfophenyl)-2H-tetrazolium-5-carboxanilide), INT, NBT, and NTV (Bernas et al. Biochim Biophys Acta 1451(1):73–81, 1999). Preferred assays utilizing tetrazolium salts detect cell proliferation by detecting the product of the enzymatic conversion of the tetrazolium salts into blue formazan derivatives, which are readily detected by spectroscopic methods (Mosman. J. Immunol. Methods. 65:55–63, 1983).
Generally, preferred methods for assaying cell proliferation involve incubating cells in a desired growth medium with and without the compounds to be tested. […] Cells are processed, and the optical density of the cells is determined to measure the amount of formazan derivatives. […]

SMILES	melting point [°C]	IC50 (MDA-468 tumor cell line) [µM]
COc1cc2ncnc(Nc3ccc(F)c(Cl)c3)c2cc1P(C)(C)=O [Example 3, 4-[(3-Chloro-4-fluorophenyl)amino]-7-methoxy-6-(dimethylphosphinoyl)-quinazoline]	257 to 259	< 50
CCOP(=O)(OCC)c1cc2c(Nc3ccc(F)c(Cl)c3)ncnc2cc1OC [Example 5, 4-[(3-Chloro-4-fluorophenyl)amino]-7-methoxy-6-(diethylphosphonate)-quinazoline]	215 to 217	< 50
CCOP(C)(=O)c1cc2c(Nc3ccc(F)c(Cl)c3)ncnc2cc1OC (stereo not drawn) [Example 7, 4-[(3-Chloro-4-fluorophenyl)amino]-7-methoxy-6-(ethyl-methylphosphinate)-quinazoline]	199 to 200	< 50
